Test results reported in PubChem BioAssay AID2388 (Broad Institute, 2010).
Calls of active or inactive are those of the source.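 Rule for the calls: active = fitted EC50 no more than ten times the top tested dose; inconclusive = flat fit with 30% to 70% inhibition, or a poor fit; inactive = EC50 beyond ten times the top tested dose.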

Tested on: S. cerevisiae CDRE-lacZ reporter, CaCl2, luminescence
Test: calcineurin pathway inhibitors in yeast reporter, dose response, S. cerevisiae, CDRE-lacZ, luminescence, secondary (AID 2388)

SMILES	EC50
NC(=NCCCCCCN=C(N)/N=C(\N)Nc1ccc(Cl)cc1)/N=C(\N)Nc1ccc(Cl)cc1	> 18 µM (inactive)
CC1CCC(C(C)C)C(OC(=O)Cn2c(-c3ccc(Br)cc3)[n+](C)c3ccccc32)C1 (configuration not stated)	> 18 µM (inactive)
